From patent US20170008876A1, “Metal Chelate Compounds for Binding to the Platelet Specific Glycoprotein IIb/IIIa” (BAYER PHARMA AKTIENGESELLSCHAFT, priority 2014, published 2017)
Where two headings read alike, the source gives them in different places.

How the values were obtained:
[1] = test system: human activated platelets; assay: Binding of compounds to human activated platelets (Gd by ICP-MS in pellet and supernatant); assay type: cell-based
Method: For each experiment fresh blood was taken from a volunteer using 10 mL citrate-tubes (Sarstedt S-Monovette 02.1067.001, 10 mL, Citrate 3.13%). The 10 mL citrate-tubes were carefully inverted 10 times to mix blood and anticoagulant. The tubes were stored in an incubator at a temperature of 37° C. until centrifugation (Heraeus miniTherm CTT with integrated rotation- and turning device, turning speed: 19 rotations per minute, Heraeus Instruments GmbH, Hanau/Germany).
For plasma preparation tube centrifugation was carried out for 15 minutes at 1811 g at room temperature (Eppendorf, Centrifuge 5810R). To produce platelet-rich plasma blood was centrifuged 15 minutes at 201 g at room temperature. The tubes were stood for 30 min at room temperature to get a better separation. The separated platelet-rich plasma was finally centrifuged for further 3 min at 453 g to remove the remaining erythrocytes. The platelet-rich plasma was activated using a final concentration of 5 μM Adenosindiphosphate (ADP, Sigma). The activated platelet-rich plasma was incubated 20 minutes […] with different concentrations of gadolinium-labeled compound and subsequently was centrifuged 3 minutes at 1360 g. 20 μL of supernatant was taken to determine the concentration (n=3). The pellet was resuspended and washed two times with at least 750 μL plasma and subsequently was redispered in 750 μL plasma and 50 μL calciumchloride (50 μL 2%).

[2] = molecular target: human GPIIb/IIIa receptor (Homo sapiens, UniProt P05106+P08514); assay: biochemical
Method: Affinity assay: In the first step human GPIIb/IIIa purified from human platelets was immobilized on a 96-well solid plate. After 48 hours the plates were washed and the unspecific binding sites were blocked with Roti®-Block. […] In the next step, the plates were simultaneously incubated with a tritium labeled known GPIIb/IIIa binder (^3H) mixed with increasing concentrations of the novel compounds (inhibitor). […] The fraction of tritiated compound (^3H), which is not displaced by inhibitor, was measured in a microplate scintillation counter. […]
The maximum value of tritiated reference compound was determined without addition of inhibitor (n=8). […]
After one hour the plate was washed three times with phosphate-buffered saline (200 μL per well, Dulbecco's Phosphate Buffered Saline (D-PBS (+)), GIBCO®, Invitrogen). […] After 15 min at room temperature the plates were measured at the microplate scintillation counter (TopCount NXT v2.13, Perkin Elmer, Packard Instrument Company).
In the first step human glycoprotein IIb/IIIa, which is purified from human platelets, was immobilized on a 96-well solid plate. […] The fraction of tritiated reference compound, which is not displaced by inhibitor, was measured at a microplate scintillation counter. […] By means of this assay the affinities (1050 values) could be determined.

[3] = test system: in vitro platelet-rich thrombi; assay: Magnetic resonance imaging of in vitro platelet-rich thrombi; assay type: cell-based, human; conditions: 20 min incubation, washed three times, 1.5 T 3D TSE
Method: Magnetic resonance imaging of in vitro platelet-rich thrombi and incubation solution (example 1) using a 3D turbo spin echo sequence (1.5 T, Siemens Avanto, small extremity coil, TR 1050 ms, TE 9.1 ms, 0.5×0.5×0.6 mm^3). In FIG. 2a an in vitro control thrombus without the addition of a contrast agent is shown. The signal intensity of the control thrombus is slightly higher than the surrounding medium but clearly lower than the signal of the in vitro thrombus which was incubated with Example 1 as depicted in FIG. 2b. In FIG. 2c the incubation solution with a final concentration of 10 μmol substance/L of example 1 in human plasma is represented. The signal intensity is higher than the surrounding plasma solutions in the in vitro platelet-rich thrombi 2a and 2b.
The in vitro thrombus in FIG. 2b is incubated with the solution which is depicted in FIG. 2c. After 20 min incubation period the thrombi was washed three times with plasma solution.
Magnetic resonance imaging of in vitro platelet-rich thrombi and incubation solution (Example 1) using a 3D turbo spin echo sequence (1.5 T, Siemens Avanto, small extremity coil, TR 1050 ms, TE 9.1 ms, 0.5×0.5×0.6 mm^3). In FIG. 3a an in vitro control thrombus without the addition of a contrast agent is shown. […]

thrombus = conditions: 40 min after last injection; for Gadolinium concentration: 4 repeated doses of 1 μM Gadolinium/kg bw i.v.; for thrombus/blood ratio: total dose 4 μM Gadolinium/kg bw
Method: The specific binding of the compound described in Example 1 was investigated in cynomolgus monkey (female 3.0 kg bodyweight).
The monkey was anesthetized with a mixture of Xylazin (Rompun®, Bayer HealthCare, Leverkusen, Germany), 0.12 mL/Kg and Ketamine (Ketavet®, Pfizer) 0.12 mL/Kg b.w. i.m. While the investigation, small amounts of Xylazin/Ketamine (1+1) have been injected i.m. if required. The left common carotid artery was exposed 10 min with iron-III-chloride solution (10%). Following thrombus induction the monkey received 1 μmol Gadolinium/kg bodyweight (equals 0.125 μmol molecule/kg bodyweight) i.v. Afterwards, the right carotid artery was exposed 8 min with iron-III-chloride solution (10%) and the monkey received a repeated dose of 1 μmol Gadolinium/kg bodyweight iv.
After the first two contrast media applications the right carotid artery was exposed surgically and a polyethylene-tube ([…] Polyethylene Tubing, Clay Adams, PE50), which was roughened previously by sandpaper (600—CAMI Grit designation), was inserted into the vessel, advanced into the descending aorta and was left there for 30 minutes to allow for the development of a thrombus on the rough surface of the tube. The monkey received 1 μmol Gadolinium/kg bodyweight (equals 0.125 μmol molecule/kg bodyweight) i.v. 30 min and 90 min post catheterization. 40 min after the last contrast media application the animal was sacrificed using Pentobarbital (Narcoren). The gadolinium concentrations in blood, thombus of the left and right carotis, right carotis, left carotis, jugular vein and aorta were determined using an inductively coupled plasma mass spectrometry (ICP-MS Agilent 7500a).

[4] = incubation concentration 1 μM molecule, incubation time 3 min
[5] = incubation concentration 1 μM molecule, incubation time 20 min
[6] = incubation concentration 10 μM molecule, incubation time 20 min

Chain of human GPIIb/IIIa receptor (P08514 32-887 limits assumed): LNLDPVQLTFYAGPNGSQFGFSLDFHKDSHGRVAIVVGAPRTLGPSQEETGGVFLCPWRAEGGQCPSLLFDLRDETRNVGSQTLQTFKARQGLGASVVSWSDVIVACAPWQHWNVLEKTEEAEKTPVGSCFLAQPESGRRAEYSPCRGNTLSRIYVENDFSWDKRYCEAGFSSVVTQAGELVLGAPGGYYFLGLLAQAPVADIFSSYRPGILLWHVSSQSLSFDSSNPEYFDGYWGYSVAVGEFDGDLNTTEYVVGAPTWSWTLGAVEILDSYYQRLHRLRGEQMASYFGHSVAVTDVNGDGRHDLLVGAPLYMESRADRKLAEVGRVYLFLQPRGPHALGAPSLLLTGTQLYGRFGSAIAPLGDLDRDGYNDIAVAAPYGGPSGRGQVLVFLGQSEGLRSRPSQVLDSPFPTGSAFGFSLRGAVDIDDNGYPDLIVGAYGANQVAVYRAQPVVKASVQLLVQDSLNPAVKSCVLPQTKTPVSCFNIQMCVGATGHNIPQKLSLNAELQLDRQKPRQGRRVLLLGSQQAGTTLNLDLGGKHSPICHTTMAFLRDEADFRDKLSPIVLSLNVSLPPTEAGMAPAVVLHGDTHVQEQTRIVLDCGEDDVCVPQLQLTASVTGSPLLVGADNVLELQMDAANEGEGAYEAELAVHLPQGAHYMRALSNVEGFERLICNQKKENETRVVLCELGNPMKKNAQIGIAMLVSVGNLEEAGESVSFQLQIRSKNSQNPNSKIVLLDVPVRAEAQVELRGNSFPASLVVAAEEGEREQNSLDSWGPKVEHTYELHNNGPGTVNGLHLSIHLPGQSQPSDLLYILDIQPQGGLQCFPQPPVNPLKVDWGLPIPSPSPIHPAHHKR
Chain of human GPIIb/IIIa receptor (P05106 27-788): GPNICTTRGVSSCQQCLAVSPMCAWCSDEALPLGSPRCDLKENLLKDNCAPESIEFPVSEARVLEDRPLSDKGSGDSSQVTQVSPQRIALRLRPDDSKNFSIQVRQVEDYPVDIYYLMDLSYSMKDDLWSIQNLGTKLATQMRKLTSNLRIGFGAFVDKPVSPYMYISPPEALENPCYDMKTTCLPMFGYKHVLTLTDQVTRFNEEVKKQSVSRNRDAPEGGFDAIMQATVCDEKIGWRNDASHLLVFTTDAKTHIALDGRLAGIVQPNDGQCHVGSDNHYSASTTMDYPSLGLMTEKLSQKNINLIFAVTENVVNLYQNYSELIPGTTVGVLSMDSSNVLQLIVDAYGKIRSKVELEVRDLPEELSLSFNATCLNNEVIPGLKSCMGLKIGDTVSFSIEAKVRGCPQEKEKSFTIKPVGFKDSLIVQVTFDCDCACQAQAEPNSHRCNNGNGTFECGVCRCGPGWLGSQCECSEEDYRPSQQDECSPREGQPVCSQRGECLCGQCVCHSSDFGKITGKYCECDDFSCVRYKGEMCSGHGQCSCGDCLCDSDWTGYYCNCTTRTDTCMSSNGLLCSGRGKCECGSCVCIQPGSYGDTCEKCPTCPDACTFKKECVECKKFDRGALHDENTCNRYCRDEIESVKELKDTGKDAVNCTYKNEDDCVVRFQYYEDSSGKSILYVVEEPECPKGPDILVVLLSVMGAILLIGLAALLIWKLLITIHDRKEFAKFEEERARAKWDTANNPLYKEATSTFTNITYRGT

SMILES: CC(C(=O)NCC(=O)NCC(NC(=O)CNC(=O)C(C)N1CCN(CC(=O)O)CCN(CC(=O)O)CCN(CC(=O)O)CC1)C(=O)NCC(NC(=O)C(CNC(=O)CNC(=O)C(C)N1CCN(CC(=O)O)CCN(CC(=O)O)CCN(CC(=O)O)CC1)NC(=O)CNC(=O)C(C)N1CCN(CC(=O)O)CCN(CC(=O)O)CCN(CC(=O)O)CC1)C(=O)NCC(NC(=O)C(CNC(=O)C(CNC(=O)CNC(=O)C(C)N1CCN(CC(=O)O)CCN(CC(=O)O)CCN(CC(=O)O)CC1)NC(=O)CNC(=O)C(C)N1CCN(CC(=O)O)CCN(CC(=O)O)CCN(CC(=O)O)CC1)NC(=O)C(CNC(=O)CNC(=O)C(C)N1CCN(CC(=O)O)CCN(CC(=O)O)CCN(CC(=O)O)CC1)NC(=O)CNC(=O)C(C)N1CCN(CC(=O)O)CCN(CC(=O)O)CCN(CC(=O)O)CC1)C(=O)NCCCCc1cccc(C#Cc2cncc([C@H](CC(=O)O)NC(=O)[C@@H]3CCCN(C(=O)CCC4CCNCC4)C3)c2)c1)N1CCN(CC(=O)O)CCN(CC(=O)O)CCN(CC(=O)O)CC1 (stereo partly drawn) [Example 1, Octagadolinium 2,3-bis-{[2,3-bis({2,3-bis[(N-{2-[4,7,10-tris(carboxylatomethyl)-1,4,7,10-tetraazacyclododecan-1-yl]propanoyl}glycyl)amino]propanoyl}amino)propanoyl]amino}-N-(4-{3-[(5-{(1S)-2-carboxy-1-[({(3R)-1-[3-(piperidin-4-yl)propanoyl]piperidin-3-yl}carbonyl)amino]ethyl}pyridin-3-yl)ethynyl]phenyl}butyl)propanamide]
- Concentration within platelet pellet ([1]; incubation concentration 0.1 μM molecule, incubation time 20 min): 28.2 ± 1.8 μM Gd
- Concentration within platelet pellet [1, 4]: 32.7 ± 7.8 μM Gd
- pellet/supernatant [1, 4]: 131 ± 36
- Concentration within platelet pellet [1, 5]: 28.8 ± 2.2 μM Gd
- pellet/supernatant [1, 5]: 108 ± 18
- Concentration within platelet pellet [1, 6]: 35.9 ± 1.6 μM Gd
- pellet/supernatant [1, 6]: 81 ± 5
- IC50 [2]: 40 nM
- MRI signal intensity of incubated in vitro thrombus versus control thrombus ([3]; 0.1 μmol substance/L (0.8 μmol Gd/L) in human plasma): clearly higher signal than the control thrombi
- MRI signal intensity of incubated in vitro thrombus versus control thrombus ([3]; 10 μmol substance/L in human plasma): clearly higher signal than the control thrombi
- Gadolinium concentration (thrombus; blood): 3.3 ± 0.7 (n = 5) μM Gd
- Gadolinium concentration (thrombus; left carotis): 9.4 ± 0.4 (n = 4) μM Gd
- Gadolinium concentration (thrombus; right carotis): 4.3 ± 0.7 (n = 4) μM Gd
- Gadolinium concentration (thrombus; right jugular vein): 4.0 μM Gd
- Gadolinium concentration (thrombus; thrombus left carotis): 29.3 μM Gd
- thrombus/blood ratio (thrombus; thrombus left carotis): 8.9
- Gadolinium concentration (thrombus; thrombus right carotis): 41.0 μM Gd
- thrombus/blood ratio (thrombus; thrombus right carotis): 12.4
